From publication PMC8748916, “Microbial enzymes induce colitis by reactivating triclosan in the mouse gastrointestinal tract” (Nature Communications, 2022)
Several values for one entry are separate records, joined by “and”; a condition that tells them apart may be missing. Equal entries are not always repeated.

Tests used:
Assay in all cases: In vitro IC50 assay (TCS-G to TCS conversion, HPLC)
Assay type in all cases: biochemical
[1] = test system: Clostridiales sp. GUS; details: for Clostridiales sp. GUS % inhibition: Fig. 4c, triplicate
Experimental: (§1) Reaction mixtures containing 10 µL GUS (10 nM final), 10 µL TCS-G (200 µM final), 5 µL inhibitor (various concentrations), and 25 µL buffer (50 mM HEPES, 50 mM NaCl, various pH) or (50 mM sodium acetate, 50 mM NaCl, various pH) were incubated for 10 min and quenched with 50 µL 25% trichloroacetic acid. Samples were centrifuged 10 min at 16,000 × g, and the supernatant was analyzed using the method described for the catalytic efficiency assay. Inhibition was calculated by the equation below:1 %inhibition=100×(1−(AUCinh−AUCmax)/(AUCmin−AUCmax)) where AUCmin is the signal of the uninhibited reaction, AUCmax is the signal of the 100% inhibited reaction, and AUCinh is the signal of the reaction at a given concentration of inhibitor. Percent inhibition values were plotted against the log of inhibitor concentration, and GraphPad Prism 8.0 was used to determine IC50 values.

[2] = target: F. prausnitzii GUS (Faecalibacterium prausnitzii, UniProt C7H4D2)
Sequence of F. prausnitzii GUS (C7H4D2 entry or part of it): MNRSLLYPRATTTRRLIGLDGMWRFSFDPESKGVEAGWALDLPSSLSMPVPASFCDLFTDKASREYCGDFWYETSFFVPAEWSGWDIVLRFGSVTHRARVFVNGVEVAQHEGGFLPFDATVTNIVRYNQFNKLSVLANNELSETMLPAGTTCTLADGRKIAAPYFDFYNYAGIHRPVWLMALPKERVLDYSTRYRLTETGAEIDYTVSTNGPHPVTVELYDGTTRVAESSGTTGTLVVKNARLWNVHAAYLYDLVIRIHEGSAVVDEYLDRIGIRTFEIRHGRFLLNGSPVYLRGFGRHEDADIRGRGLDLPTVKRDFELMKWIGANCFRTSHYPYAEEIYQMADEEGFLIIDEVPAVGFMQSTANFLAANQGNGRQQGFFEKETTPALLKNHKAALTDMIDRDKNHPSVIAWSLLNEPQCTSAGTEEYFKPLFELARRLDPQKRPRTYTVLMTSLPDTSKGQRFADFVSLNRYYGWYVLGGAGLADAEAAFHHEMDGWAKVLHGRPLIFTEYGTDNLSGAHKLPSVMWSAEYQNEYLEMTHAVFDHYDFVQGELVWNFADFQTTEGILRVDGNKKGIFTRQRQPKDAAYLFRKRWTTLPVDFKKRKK
Experimental: as §1

[3] = target: T1, R. hominis 3 GUS (Roseburia hominis, UniProt A0A395V874)
T1 sequence (A0A395V874 1-734): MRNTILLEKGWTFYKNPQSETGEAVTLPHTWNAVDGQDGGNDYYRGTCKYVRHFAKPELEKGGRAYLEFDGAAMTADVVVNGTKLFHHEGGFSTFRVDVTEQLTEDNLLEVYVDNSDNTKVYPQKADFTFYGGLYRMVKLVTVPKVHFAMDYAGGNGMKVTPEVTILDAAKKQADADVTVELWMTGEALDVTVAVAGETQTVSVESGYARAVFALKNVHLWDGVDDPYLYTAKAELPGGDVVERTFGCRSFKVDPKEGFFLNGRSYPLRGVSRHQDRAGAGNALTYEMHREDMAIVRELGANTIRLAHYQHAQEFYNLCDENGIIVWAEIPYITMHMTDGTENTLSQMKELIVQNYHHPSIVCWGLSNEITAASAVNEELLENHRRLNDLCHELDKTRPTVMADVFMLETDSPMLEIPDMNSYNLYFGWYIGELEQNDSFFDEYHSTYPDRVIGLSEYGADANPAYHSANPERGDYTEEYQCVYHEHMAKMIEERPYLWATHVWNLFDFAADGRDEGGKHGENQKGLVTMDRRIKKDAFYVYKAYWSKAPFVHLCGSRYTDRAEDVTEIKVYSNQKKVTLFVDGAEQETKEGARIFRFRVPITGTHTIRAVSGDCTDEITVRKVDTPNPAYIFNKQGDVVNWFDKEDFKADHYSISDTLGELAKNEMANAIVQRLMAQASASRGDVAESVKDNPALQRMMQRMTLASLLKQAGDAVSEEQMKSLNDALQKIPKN
Experimental: as §1

[4] = GUSi 3.7037 uM, Fig. 4b, triplicate
[5] = GUSi 11.1111 uM, Fig. 4b, triplicate
[6] = GUSi 33.3333 uM, Fig. 4b, triplicate
[7] = GUSi 100 uM, Fig. 4b, triplicate
[8] = GUSi 33.3333 uM, Fig. 4c, triplicate

## C1CCc2c(c(N3CCOCC3)nc3sc4c(N5CCNCC5)nnnc4c23)C1 [GUSi, UNC10201652]
[1]; GUSi 11.1111 uM
  Clostridiales sp. GUS % inhibition: 28.4771% and 43.1829% and 36.9382%
[1]; GUSi 33.3333 uM
  Clostridiales sp. GUS % inhibition: 61.452% and 67.3548% and 67.8202%
[1]; GUSi 100 uM
  Clostridiales sp. GUS % inhibition: 79.8338% and 82.8373% and 85.2439%
[1]; conversion of TCS-G (200 µM) to TCS, FMN-binding GUS
  IC50: 4 ± 1 µM
[2]; GUSi 0.411523 uM, Fig. 4b, triplicate
  F. prausnitzii GUS % inhibition: -3.256% and -6.409% and 1.703%
[2]; [4]
  F. prausnitzii GUS % inhibition: 31.508% and 41.6292%
  inhibition at 3.7037 µM: 30.3%
[2]; [5]
  F. prausnitzii GUS % inhibition: 65.4843% and 60.2667%
  inhibition at 11.1111 µM: 68.7%
[2]; [6]
  F. prausnitzii GUS % inhibition: 79.5271% and 77.5064%
  inhibition at 33.3333 µM: 74.1%
[2]; [7]
  F. prausnitzii GUS % inhibition: 90.4792% and 87.3233%
  inhibition at 100 µM: 85.7%
[2]; conversion of TCS-G (200 µM) to TCS, Loop 1 GUS
  IC50: 4.9 ± 0.8 µM
[3]
  IC50: > 100 µM
[3]; GUSi 3.7037 uM, Fig. 4c, triplicate
  R. hominis 3 GUS % inhibition: 2.389% and -2.0752% and 4.091%
[3]; [8]
  R. hominis 3 GUS % inhibition: 18.9209% and 35.4136%
  inhibition at 33.3333 µM: 23.2%
[3]; GUSi 100 uM, Fig. 4c, triplicate
  R. hominis 3 GUS % inhibition: 34.5947% and 39.5508% and 57.3604%
